Experimental data reported in patent publication US20260042764A1, “COMPOSITIONS AND METHODS FOR INHIBITION OF KRAS” (TheRas, Inc., priority 2022, published 2026).
Where two headings read alike, the source gives them in different places.

Assays:
H1573 cells (KRAS G12A) = assay: Cell-based pERK HTRF assay in H1573 cells (Biological Example 5)
Method: (§1) Biological Example 5: Cell-based PERK HTRF assay in AsPC-1, SW1900, HPAC, Capan-2, RKN, H358, HCT116, KP-2, H1573, A549, MKN1, and HT1080 cells
(§2) The inhibition of ERK phosphorylation, as measured using the HTRF Advanced Phospho-ERK 1/2 (Thr202/Tyr204) Detection Assay kit (Perkin Elmer), was used to determine the effectiveness of test compounds in disrupting KRAS-driven protein/effector signaling in cells.
(§3) On day 1, cells were seeded into 96-well plates at 2.5×10^4 cells/well in 100 μL of complete growth media supplemented with 10% fetal bovine serum (FBS) and incubated at 37° C., in the presence of 5% CO2.
(§4) On day 2, cells were treated with compounds diluted in DMSO at 0.25% final DMSO concentration. Compounds were dosed in a 9-point concentration curve with three-fold dilution between concentrations. Cells were incubated in the presence of compound for two hours at 37° C. Following this treatment period, cells were harvested by aspirating the media, adding 40 μL of kit-supplied 1x lysis buffer per well, and shaking for 30 minutes at 250 rpm at room temperature.
(§5) Following cell lysis, samples were homogenized by pipetting up and down twenty times and 16 μL of cell lysate per well was transferred from the 96-well cell culture plate to two wells of a 384-well detection plate. A complete detection buffer was prepared by diluting D2 and Eu Cryptate antibodies 1:20 in kit-provided detection solution, 4 μL of complete detection buffer was then added to each well with lysate. Plates were incubated with gentle rocking for 24 hours at 4° C.
(§6) Following this incubation period, plates were centrifuged at 500×g for one minute and analyzed on a CLARIOstar plate reader. Data was imported into Microsoft Excel and the signal from the 665 nm channel was divided by the signal from the 620 nm channel. % pERK was calculated as: […]
(§7) Data was imported to the Prism software package (Graphpad) and EC50 values were calculated using the log (inhibitor) vs, response—variable slopc (Four parameters) model.

HCT116 cells (KRAS G13D) = assay: Cell-based pERK HTRF assay in HCT116 cells (Biological Example 5)
Method: as §1, §2, §3, §4, §5, §6, §7

A549 cells (KRAS G12S) [1] = assay: 3D Cell viability assay in A549 cells (Biological Example 6); assay type: cell-based; details: A549 (KRAS G12S) spheroids, 72 hours
Method: Biological Example 6: 3D Cell viability assay in AsPC-1, SW1900, HPAC, Capan-2, RKN, H358, HCT116, KP-2, H1573, A549, MKN1, and HT1080 cells
The inhibition of cellular viability as a result of test compound treatment in a spheroid assay was measured using the CellTiter-Glow 3D Cell Viability Assay (Promega).
On Day 1, 1000 cells per well were seeded in 150 μL of complete growth media supplemented with 10% fetal bovine serum (FBS) and incubated at 37° C., in the presence of 5% CO2 in 96-well ultra-low attachment microplates (Corning) for 48 hours undisturbed to allow spheroids to form.
Following spheroid formation, cells were treated with compounds diluted in DMSO at 0.25% final DMSO concentration. Compounds were dosed in a 9-point concentration curve with three-fold dilution between concentrations. Cells were incubated in the presence of compound for 72 hours at 37° C., in the presence of 5% CO2.
Following this incubation period, the kit-provided CTG reagent was allowed to equilibrate for 30 minutes at room temperature, 150 μL of equilibrated CTG reagent was added to each well, and the plate was sealed before shaking at 250 rpm for 10 minutes at room temperature to lyse the cells, 150 μL of lysate per well was transferred to a 96-well plate and luminescence was read on a CLARIOstar plate reader.
Data was imported into the Prism software package (Graphpad) and EC50 values were calculated using the log (inhibitor) vs, response—variable slope (Four parameters) model.

AsPC-1 cells (KRAS G12D) = assay: Cell-based pERK HTRF assay in AsPC-1 cells (Biological Example 5)
Method: as §1, §2, §3, §4, §5, §6, §7

A549 cells (KRAS G12S) [2] = assay: Cell-based pERK HTRF assay in A549 cells (Biological Example 5)
Method: as §1, §2, §3, §4, §5, §6, §7

HT1080 cells (NRAS) = assay: Cell-based pERK HTRF assay in HT1080 cells (Biological Example 5)
Method: as §1, §2, §3, §4, §5, §6, §7

[3] = Homo sapiens, ASPC1, AsPC-1 (KRAS G12D) cells

| IC50 (H1573 cells (KRAS G12A); Homo sapiens, NCI-H1573) | IC50 (HCT116 cells (KRAS G13D); Homo sapiens, HCT-116) | IC50 (A549 cells (KRAS G12S) [1]; Homo sapiens) | IC50 (AsPC-1 cells (KRAS G12D); [3]) | IC50 (A549 cells (KRAS G12S) [2]; Homo sapiens) | IC50 (HT1080 cells (NRAS); Homo sapiens, HT-1080) | IC50 (AsPC-1 cells (KRAS G12D); AsPC-1 (KRAS G12D) cells) | IC50 (H1573 cells (KRAS G12A)) | IC50 (HCT116 cells (KRAS G13D)) | IC50 (A549 cells (KRAS G12S) [1]) | IC50 (A549 cells (KRAS G12S) [2]) | IC50 (HT1080 cells (NRAS)) | Compound |
| --- | --- | --- | --- | --- | --- | --- | --- | --- | --- | --- | --- | --- |
| 100 to 1000 nM | ≤ 100 nM | 100 to 1000 nM | 100 to 1000 nM | 100 to 1000 nM | > 1000 nM |  |  |  |  |  |  | CCC(=O)N1C[C@@H](N(CC)c2nc(OC[C@@]34CCCN3C[C@H](F)C4)nc3c(F)c(-c4ccc(F)c5sc(N)c(C#N)c45)c(C(F)(F)F)cc23)C[C@H]1C [Compound 442] |
| ≤ 100 nM | ≤ 100 nM | ≤ 100 nM |  | ≤ 100 nM | > 1000 nM | ≤ 100 nM |  |  |  |  |  | CCN(c1nc(OC[C@@]23CCCN2C[C@H](F)C3)nc2c(F)c(-c3ccc(F)c4sc(N)c(C#N)c34)c(C(F)(F)F)cc12)[C@H]1CCN(C(=O)C(C)C)C1 [Compound 332] |
| ≤ 100 nM | ≤ 100 nM | ≤ 100 nM | 100 to 1000 nM | ≤ 100 nM | > 1000 nM |  |  |  |  |  |  | CCN(c1nc(OC[C@@]23CCCN2C[C@H](F)C3)nc2c(F)c(-c3ccc(F)c4sc(N)c(C#N)c34)c(C(F)(F)F)cc12)[C@@H]1CCN(C(C)=O)C1 [Compound 268] |
| 100 to 1000 nM | ≤ 100 nM | 100 to 1000 nM | > 1000 nM | 100 to 1000 nM | > 1000 nM |  |  |  |  |  |  | C[C@@H]1[C@H](N(C)c2nc(OC[C@@]34CCCN3C[C@H](F)C4)nc3c(F)c(-c4ccc(F)c5sc(N)c(C#N)c45)c(C(F)(F)F)cc23)CC(=O)N1C [Compound 440] |
| ≤ 100 nM | ≤ 100 nM | ≤ 100 nM | 100 to 1000 nM | ≤ 100 nM | > 1000 nM |  |  |  |  |  |  | CCN(c1nc(OC[C@@]23CCCN2C[C@H](F)C3)nc2c(F)c(-c3ccc(F)c4sc(N)c(C#N)c34)c(C(F)(F)F)cc12)[C@H]1CCN(C(C)=O)C1 [Compound 262] |
| ≤ 100 nM | ≤ 100 nM | ≤ 100 nM |  | ≤ 100 nM | > 1000 nM |  |  |  |  |  |  | CCN(c1nc(OC[C@@]23CCCN2C[C@H](F)C3)nc2c(F)c(-c3ccc(F)c4sc(N)c(C#N)c34)c(Cl)cc12)[C@@H]1CCN(C(C)=O)[C@@H]1C [Compound 323] |
| ≤ 100 nM | ≤ 100 nM | ≤ 100 nM |  | ≤ 100 nM | > 1000 nM |  |  |  |  |  |  | CC(=O)N1CC[C@@H](N(C)c2nc(OC[C@@]34CCCN3C[C@H](F)C4)nc3c(F)c(-c4ccc(F)c5sc(N)c(C#N)c45)c(Cl)cc23)[C@H]1C [Compound 398] |
|  |  |  |  |  |  |  | ≤ 100 nM | ≤ 100 nM | 100 to 1000 nM | 100 to 1000 nM | > 1000 nM | CN(c1nc(OC[C@@]23CCCN2C[C@H](F)C3)nc2c(F)c(-c3ccc(F)c4sc(N)c(C#N)c34)c(C(F)(F)F)cc12)[C@H]1C[C@@H](O)C1 [Compound 19, 2-amino-7-fluoro-4-((S)-8-fluoro-2-(((2R,7aS)-2-fluorotetrahydro-1H-pyrrolizin-7a(5H)-yl)methoxy)-4-(((1s,3R)-3-hydroxycyclobutyl)(methyl)amino)-6-(trifluoromethyl)quinazolin-7-yl)benzo[b]thiophene-3-carbonitrile] |
| 100 to 1000 nM | ≤ 100 nM | 100 to 1000 nM | > 1000 nM | 100 to 1000 nM | > 1000 nM |  |  |  |  |  |  | N#Cc1cnn2c1CN(c1nc(OC[C@@]34CCCN3C[C@H](F)C4)nc3c(F)c(-c4ccc(F)c5sc(N)c(C#N)c45)c(C(F)(F)F)cc13)CC2 [Compound 392] |
| ≤ 100 nM | ≤ 100 nM | ≤ 100 nM |  | 100 to 1000 nM | > 1000 nM |  |  |  |  |  |  | N#Cc1c(N)sc2c(F)ccc(-c3c(C(F)(F)F)cc4c(N5CCCOCC5)nc(OC[C@@]56CCCN5C[C@H](F)C6)nc4c3F)c12 [Compound 232] |
| ≤ 100 nM | ≤ 100 nM | ≤ 100 nM |  | ≤ 100 nM | > 1000 nM |  |  |  |  |  |  | CC(=O)N1CC[C@@H](N(C)c2nc(OC[C@@]34CCCN3C[C@H](F)C4)nc3c(F)c(-c4ccc(F)c5sc(N)c(C#N)c45)c(C(F)(F)F)cc23)[C@H]1C (single isomer, unassigned) [Compound 193] |

| Compound | IC50 (H1573 cells (KRAS G12A); Homo sapiens, NCI-H1573) | IC50 (HCT116 cells (KRAS G13D); Homo sapiens, HCT-116) | IC50 (A549 cells (KRAS G12S) [1]; Homo sapiens) | IC50 (AsPC-1 cells (KRAS G12D); [3]) | IC50 (A549 cells (KRAS G12S) [2]; Homo sapiens) | IC50 (HT1080 cells (NRAS); Homo sapiens, HT-1080) | IC50 (AsPC-1 cells (KRAS G12D); AsPC-1 (KRAS G12D) cells) | IC50 (H1573 cells (KRAS G12A)) | IC50 (HCT116 cells (KRAS G13D)) | IC50 (A549 cells (KRAS G12S) [1]) | IC50 (A549 cells (KRAS G12S) [2]) | IC50 (HT1080 cells (NRAS)) |
| --- | --- | --- | --- | --- | --- | --- | --- | --- | --- | --- | --- | --- |
| N#Cc1c(N)sc2c(F)ccc(-c3c(C(F)(F)F)cc4c(N5CC6CC(C5)O6)nc(OC[C@@]56CCCN5C[C@H](F)C6)nc4c3F)c12 (single isomer, unassigned) [Compound 275] | ≤ 100 nM | ≤ 100 nM | ≤ 100 nM | 100 to 1000 nM | ≤ 100 nM | > 1000 nM |  |  |  |  |  |  |
